From PubChem BioAssay AID328 (DTP/NCI, 2004)
Values joined by “and” are separate entries in the source; they are usually repeats but may differ in a detail not shown here. Equal values may be shown once. Toxic doses and inconclusive results are not listed.

System: BDF1 mice, P388 leukemia ip, median survival T/C
Experiment: NCI In Vivo Anticancer Drug Screen. Data for tumor model P388 Leukemia (intraperitoneal) in B6D2F1 (BDF1) mice
Settings: endpoint: median survival time, higher = longer survival
Method in brief: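 Each value expresses how treatment altered survival: treated-mouse outcome over vehicle-mouse outcome, both groups bearing the transplanted tumour.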

[1] = dose: 12.5 mg/kg/injection, schedule: Q04DX003 (ip), vehicle: saline

Structure (SMILES): COc1cc2c(c(OC)c1OC)-c1ccc(OC)c(=O)cc1[C@@H](NC=O)CC2
- T/C (dose: 0.05 mg/kg/injection, schedule: Q01DX009 (ip), vehicle: Klucel (hydroxypropylcellulose) (HPC)): 120 % of control
- T/C (dose: 0.09 mg/kg/injection, schedule: Q01DX009 (ip), vehicle: Klucel (hydroxypropylcellulose) (HPC)): 160 % of control
- T/C (dose: 0.19 mg/kg/injection, schedule: Q01DX009 (ip), vehicle: Klucel (hydroxypropylcellulose) (HPC)): 160 % of control
- T/C (dose: 0.37 mg/kg/injection, schedule: Q01DX010 (ip), vehicle: saline): 154 % of control
- T/C (dose: 0.38 mg/kg/injection, schedule: Q01DX009 (ip), vehicle: Klucel (hydroxypropylcellulose) (HPC)): 190 % of control
- T/C (dose: 0.38 mg/kg/injection, schedule: Q01DX010 (ip), vehicle: saline): 158 % of control
- T/C (dose: 0.75 mg/kg/injection, schedule: Q01DX009 (ip), vehicle: Klucel (hydroxypropylcellulose) (HPC)): 100 % of control
- T/C (dose: 0.75 mg/kg/injection, schedule: Q01DX010 (ip), vehicle: saline): 170 % of control
- T/C (dose: 6.3 micrograms/kg/injection, schedule: Q01DX010 (ip), vehicle: saline): 100 % of control
- T/C (dose: 12.0 micrograms/kg/injection, schedule: Q01DX009 (ip), vehicle: Klucel (hydroxypropylcellulose) (HPC)): 100 % of control
- T/C (dose: 12.5 micrograms/kg/injection, schedule: Q01DX010 (ip), vehicle: saline): 88 % of control
- T/C (dose: 23.0 micrograms/kg/injection, schedule: Q01DX009 (ip), vehicle: Klucel (hydroxypropylcellulose) (HPC)): 120 % of control
- T/C (dose: 25.0 micrograms/kg/injection, schedule: Q01DX010 (ip), vehicle: saline): 111 % of control
- T/C (dose: 50.0 micrograms/kg/injection, schedule: Q01DX010 (ip), vehicle: saline): 111 % of control

Structure (SMILES): CC1(C)N=C(N)N=C(N)N1c1ccc(CCCCc2ccc(Cl)c(S(=O)(=O)F)c2)c(Cl)c1
- T/C (dose: 0.88 mg/kg/injection, schedule: Q01DX009 (ip), vehicle: saline): 118 % of control
- T/C (dose: 1.32 mg/kg/injection, schedule: Q01DX009 (ip), vehicle: saline): 109 % of control
- T/C (dose: 2.36 mg/kg/injection, schedule: Q04DX003 (ip), vehicle: saline): 106 % of control
- T/C (dose: 3.56 mg/kg/injection, schedule: Q04DX003 (ip), vehicle: saline): 123 % of control
- T/C (dose: 5.33 mg/kg/injection, schedule: Q04DX003 (ip), vehicle: saline): 108 % of control
- T/C (dose: 8.0 mg/kg/injection, schedule: Q04DX003 (ip), vehicle: saline): 115 % of control
- T/C (dose: 8.33 mg/kg/injection, schedule: Q04DX003 (ip), vehicle: saline): 120 % of control
- T/C (dose: 12.0 mg/kg/injection, schedule: Q01DX009 (ip), vehicle: saline): 163 % of control
- T/C [1]: 181 % of control
- T/C (dose: 18.0 mg/kg/injection, schedule: Q01DX009 (ip), vehicle: saline): 159 % of control
- T/C (dose: 25.0 mg/kg/injection, schedule: Q01DX009 (ip), vehicle: saline): 104 % of control
- T/C (dose: 50.0 mg/kg/injection, schedule: Q01DX009 (ip), vehicle: saline): 104 % of control
- T/C (dose: 50.0 mg/kg/injection, schedule: Q04DX003 (ip), vehicle: saline): 113 % of control

Structure (SMILES): CCOc1ccc(/C=N/NS(=O)(=O)c2ccccc2)cc1OC
- T/C (dose: 200.0 mg/kg/injection, schedule: Q01DX009 (ip), vehicle: saline with Tween-80): 105 % of control
- T/C (dose: 400.0 mg/kg/injection, schedule: Q01DX009 (ip), vehicle: saline with Tween-80): 100 % of control

Structure (SMILES): FC(F)(F)c1ccc2c(c1)N(CCCN1CCN(CCOCCCl)CC1)c1ccccc1S2
- T/C [1]: 107 % of control

Structure (SMILES): C=CN1C(=O)N(C=C)C(C)(CC(C)C)C1=O (stereo unspecified)
- T/C (dose: 50.0 mg/kg/injection, schedule: Q04DX003 (ip), vehicle: saline with Tween-80): 104 % of control
- T/C (dose: 100.0 mg/kg/injection, schedule: Q04DX003 (ip), vehicle: saline with Tween-80): 109 % of control
- T/C (dose: 200.0 mg/kg/injection, schedule: Q04DX003 (ip), vehicle: saline with Tween-80): 100 % of control

Structure (SMILES): Nc1cc[c]([Hg][Cl])cc1
- T/C (dose: 1.5 mg/kg/injection, schedule: Q01DX001 (ip), vehicle: Klucel (hydroxypropylcellulose) (HPC)): 110 % of control
- T/C (dose: 3.0 mg/kg/injection, schedule: Q01DX001 (ip), vehicle: Klucel (hydroxypropylcellulose) (HPC)): 115 % of control
- T/C (dose: 6.0 mg/kg/injection, schedule: Q01DX001 (ip), vehicle: Klucel (hydroxypropylcellulose) (HPC)): 100 % of control and 104 % of control

Structure (SMILES): CC1CC2C(CC1=O)C(C)(C)CCC2(C)C (stereo unspecified)
- T/C (dose: 100.0 mg/kg/injection, schedule: Q01DX009 (ip), vehicle: Klucel (hydroxypropylcellulose) (HPC)): 109 % of control
- T/C (dose: 200.0 mg/kg/injection, schedule: Q01DX009 (ip), vehicle: Klucel (hydroxypropylcellulose) (HPC)): 104 % of control
- T/C (dose: 264.0 mg/kg/injection, schedule: Q04DX003 (ip), vehicle: Klucel (hydroxypropylcellulose) (HPC)): 104 % of control and 109 % of control
- T/C (dose: 400.0 mg/kg/injection, schedule: Q01DX009 (ip), vehicle: Klucel (hydroxypropylcellulose) (HPC)): 86 % of control
- T/C (dose: 400.0 mg/kg/injection, schedule: Q04DX003 (ip), vehicle: Klucel (hydroxypropylcellulose) (HPC)): 104 % of control
